Test system: MV-4-11 cells
Assay: Gene expression microarray analysis (Affymetrix PrimeView) and GSEA
Format: cell-based, human
Design: RFU PODN (11730768_x_at) / Fold change /veh PODN (11730768_x_at) / RFU LINC00158 (11744669_a_at) / Fold change /veh LINC00158 (11744669_a_at) / RFU DUSP10 (11751237_a_at) / Fold change /veh DUSP10 (11751237_a_at) / RFU ID3 (11757404_x_at) / Fold change /veh ID3 (11757404_x_at) / RFU PLEKHG5 (11737974_s_at) / Fold change /veh PLEKHG5 (11737974_s_at) / RFU LRRC4B (11730491_at) / Fold change /veh LRRC4B (11730491_at) / RFU GIMAP4 (11747438_a_at) / Fold change /veh GIMAP4 (11747438_a_at) / RFU KRT8 (11758183_x_at) / Fold change /veh KRT8 (11758183_x_at) / RFU CNN1 (11734310_a_at) / Fold change /veh CNN1 (11734310_a_at) / RFU VPS37D (11726825_at) / Fold change /veh VPS37D (11726825_at) / RFU C10orf10 (11716522_x_at) / Fold change /veh C10orf10 (11716522_x_at) / RFU KIR2DL2 /// KIR2DL4 /// KIR2DL5A /// KIR2DL5B /// KIR2DS1 /// KIR2DS2 /// KIR2DS3 /// KIR2DS4 /// KIR3DL3 /// KIR3DL3 /// KIR3DS1 (11738374_at) / Fold change /veh KIR2DL2 /// KIR2DL4 /// KIR2DL5A /// KIR2DL5B /// KIR2DS1 /// KIR2DS2 /// KIR2DS3 /// KIR2DS4 /// KIR3DL3 /// KIR3DL3 /// KIR3DS1 (11738374_at) / RFU C1QL1 (11718748_at) / Fold change /veh C1QL1 (11718748_at) / RFU TMPRSS4 (11747572_a_at) / Fold change /veh TMPRSS4 (11747572_a_at) / RFU HAMP (11756126_x_at) / Fold change /veh HAMP (11756126_x_at) / RFU RNFT2 (11725882_a_at) / Fold change /veh RNFT2 (11725882_a_at) / RFU NR4A2 (11747474_a_at) / Fold change /veh NR4A2 (11747474_a_at) / RFU ABCC12 (11746883_a_at) / Fold change /veh ABCC12 (11746883_a_at) / RFU TMEM136 (11760407_x_at) / Fold change /veh TMEM136 (11760407_x_at) / RFU CLDN22 /// WWC2 (11732394_at) / Fold change /veh CLDN22 /// WWC2 (11732394_at) / RFU HLA-DPB1 (11760878_x_at) / Fold change /veh HLA-DPB1 (11760878_x_at) / RFU SPINT1 (11716480_a_at) / Fold change /veh SPINT1 (11716480_a_at) / RFU GAP43 (11754022_s_at) / Fold change /veh GAP43 (11754022_s_at) / RFU A4GNT (11735810_at) / Fold change /veh A4GNT (11735810_at) / RFU PRB3 (11715151_x_at) / Fold change /veh PRB3 (11715151_x_at) / RFU TUBB4B (11761932_at) / Fold change /veh TUBB4B (11761932_at) / RFU CAPN14 (11732068_a_at) / Fold change /veh CAPN14 (11732068_a_at) / RFU TMCC2 (11721928_a_at) / Fold change /veh TMCC2 (11721928_a_at) / RFU IRGQ (11745062_a_at) / Fold change /veh IRGQ (11745062_a_at) / RFU FAM174B (11720279_a_at) / Fold change /veh FAM174B (11720279_a_at) / RFU TMPRSS4 (11748680_a_at) / Fold change /veh TMPRSS4 (11748680_a_at) / RFU FAM212B (11763350_a_at) / Fold change /veh FAM212B (11763350_a_at) / RFU PLEKHG5 (11743358_a_at) / Fold change /veh PLEKHG5 (11743358_a_at) / RFU ZSCAN30 (11745921_a_at) / Fold change /veh ZSCAN30 (11745921_a_at) / RFU CMKLR1 (11741424_a_at) / Fold change /veh CMKLR1 (11741424_a_at) / RFU LOC101060620 /// MAPK8IP1 (11723275_at) / Fold change /veh LOC101060620 /// MAPK8IP1 (11723275_at) / RFU SPTSSB (11747773_x_at) / Fold change /veh SPTSSB (11747773_x_at) / RFU PRSS12 (11739890_at) / Fold change /veh PRSS12 (11739890_at) / RFU BIN1 (11741810_x_at) / Fold change /veh BIN1 (11741810_x_at) / RFU WNT11 (11732464_a_at) / Fold change /veh WNT11 (11732464_a_at) / RFU C10orf10 (11716521_a_at) / Fold change /veh C10orf10 (11716521_a_at) / RFU C5orf56 (11738089_at) / Fold change /veh C5orf56 (11738089_at) / RFU CYB561 (11721691_x_at) / Fold change /veh CYB561 (11721691_x_at) / RFU ANKRD19P (11752326_a_at) / Fold change /veh ANKRD19P (11752326_a_at) / RFU OR2T12 /// OR2T33 /// OR2T8 (11738714_s_at) / Fold change /veh OR2T12 /// OR2T33 /// OR2T8 (11738714_s_at) / RFU VCAN (11748164_a_at) / Fold change /veh VCAN (11748164_a_at) / RFU JSRP1 (11732532_at) / Fold change /veh JSRP1 (11732532_at) / RFU KRTAP10-11 (11738290_x_at) / Fold change /veh KRTAP10-11 (11738290_x_at) / RFU MYO3A (11730013_a_at) / Fold change /veh MYO3A (11730013_a_at) / RFU EBF3 (11725865_a_at) / Fold change /veh EBF3 (11725865_a_at) / RFU CAMK2N1 (11719241_x_at) / Fold change /veh CAMK2N1 (11719241_x_at) / RFU C5orf56 (11738088_a_at) / Fold change /veh C5orf56 (11738088_a_at) / RFU OLFML3 (11715873_a_at) / Fold change /veh OLFML3 (11715873_a_at) / RFU LOC100653217 /// NTM (11731650_a_at) / Fold change /veh LOC100653217 /// NTM (11731650_a_at) / RFU MAPK11 (11762145_a_at) / Fold change /veh MAPK11 (11762145_a_at) / RFU FIZ1 (11724087_x_at) / Fold change /veh FIZ1 (11724087_x_at) / RFU OASL (11726364_x_at) / Fold change /veh OASL (11726364_x_at) / RFU SOX15 (11748057_x_at) / Fold change /veh SOX15 (11748057_x_at) / RFU CD79A (11719716_a_at) / Fold change /veh CD79A (11719716_a_at) / RFU HIST1H1D (11736915_at) / Fold change /veh HIST1H1D (11736915_at) / RFU CASKIN2 (11723855_a_at) / Fold change /veh CASKIN2 (11723855_a_at) / RFU LOC730098 (11760151_x_at) / Fold change /veh LOC730098 (11760151_x_at) / RFU OR4N2 (11742367_at) / Fold change /veh OR4N2 (11742367_at) / RFU PRRT2 (11749266_a_at) / Fold change /veh PRRT2 (11749266_a_at) / RFU SNX32 (11753110_a_at) / Fold change /veh SNX32 (11753110_a_at) / RFU CDHR5 (11726645_a_at) / Fold change /veh CDHR5 (11726645_a_at) / RFU RCAN1 (11760418_a_at) / Fold change /veh RCAN1 (11760418_a_at) / RFU FAM167A (11723789_a_at) / Fold change /veh FAM167A (11723789_a_at) / RFU FAM26E (11764081_at) / Fold change /veh FAM26E (11764081_at) / RFU ISYNA1 (11749810_s_at) / Fold change /veh ISYNA1 (11749810_s_at) / RFU ACY1 (11761880_at) / Fold change /veh ACY1 (11761880_at) / RFU 11764098_at / Fold change /veh 11764098_at / RFU SAMD14 (11745864_x_at) / Fold change /veh SAMD14 (11745864_x_at) / RFU NPB (11741838_a_at) / Fold change /veh NPB (11741838_a_at) / RFU TMPRSS6 (11731388_a_at) / Fold change /veh TMPRSS6 (11731388_a_at) / RFU KRTAP10-2 (11738614_at) / Fold change /veh KRTAP10-2 (11738614_at) / RFU ARHGAP8 /// PRR5-ARHGAP8 (11727945_x_at) / Fold change /veh ARHGAP8 /// PRR5-ARHGAP8 (11727945_x_at) / RFU KRTAP5-7 /// NADSYN1 (11734609_at) / Fold change /veh KRTAP5-7 /// NADSYN1 (11734609_at) / RFU RASL12 (11751679_a_at) / Fold change /veh RASL12 (11751679_a_at) / RFU CDKN2B (11736163_a_at) / Fold change /veh CDKN2B (11736163_a_at) / RFU PRF1 (11729649_at) / Fold change /veh PRF1 (11729649_at) / RFU, ZNF638 /// ZNF638-IT1 / Fold change vs veh, ZNF638 /// ZNF638-IT1 / RFU, PANK3 / Fold change vs veh, PANK3 / RFU, SH3YL1 / Fold change vs veh, SH3YL1 / RFU, ZEB2 / Fold change vs veh, ZEB2 / RFU, NRIP1 / Fold change vs veh, NRIP1 / RFU, PTTG1IP / Fold change vs veh, PTTG1IP / RFU, CAPN2 / Fold change vs veh, CAPN2 / RFU, MED14 / Fold change vs veh, MED14 / RFU, SNORA58 / Fold change vs veh, SNORA58 / RFU, C1orf63 / Fold change vs veh, C1orf63 / RFU, LRRFIP1 / Fold change vs veh, LRRFIP1 / RFU, NDUFAF7 / Fold change vs veh, NDUFAF7 / RFU, SLC12A2 / Fold change vs veh, SLC12A2 / RFU, IBTK / Fold change vs veh, IBTK / RFU, ESF1 / Fold change vs veh, ESF1 / Fold change vs veh, TMEM50B / RFU, TAOK1 / Fold change vs veh, TAOK1 / RFU, ACBD3 / Fold change vs veh, ACBD3 / RFU, TMA16 / Fold change vs veh, TMA16 / RFU, RWDD3 / Fold change vs veh, RWDD3 / RFU, BCAT1 / Fold change vs veh, BCAT1 / RFU, EDEM3 / Fold change vs veh, EDEM3 / RFU, TMEM33 / Fold change vs veh, TMEM33 / RFU, WDR75 / Fold change vs veh, WDR75 / RFU, AHCTF1 / Fold change vs veh, AHCTF1 / RFU, TFRC / Fold change vs veh, TFRC / RFU, ZDHHC17 / Fold change vs veh, ZDHHC17 / RFU, NOM1 / Fold change vs veh, NOM1 / RFU, ARL8B / Fold change vs veh, ARL8B / RFU, ZBTB11 / Fold change vs veh, ZBTB11 / RFU, TAMM41 / Fold change vs veh, TAMM41 / RFU, KIAA1704 /// LOC100996395 / Fold change vs veh, KIAA1704 /// LOC100996395 / RFU, ING1 / Fold change vs veh, ING1 / RFU, TRMT61B / Fold change vs veh, TRMT61B / RFU, FUBP3 / Fold change vs veh, FUBP3 / RFU, TP53 / Fold change vs veh, TP53 / RFU, TNKS2 / Fold change vs veh, TNKS2 / RFU, ZFP14 / Fold change vs veh, ZFP14 / RFU, ACTR2 / Fold change vs veh, ACTR2 / RFU, PPP3R1 / Fold change vs veh, PPP3R1 / RFU, PIK3R1 / Fold change vs veh, PIK3R1 / RFU, HNRNPA1 / Fold change vs veh, HNRNPA1 / RFU, RNF170 / Fold change vs veh, RNF170 / RFU, ZNF28 / Fold change vs veh, ZNF28 / RFU, RNGTT / Fold change vs veh, RNGTT / RFU, OGT / Fold change vs veh, OGT / RFU, BRD1 / Fold change vs veh, BRD1 / RFU, MARS / Fold change vs veh, MARS / RFU, ZNF655 / Fold change vs veh, ZNF655 / RFU, FAHD1 / Fold change vs veh, FAHD1 / RFU, BDP1 / Fold change vs veh, BDP1 / RFU, LRRCC1 / Fold change vs veh, LRRCC1 / RFU, ARID1A / Fold change vs veh, ARID1A / RFU, ZNF146 / Fold change vs veh, ZNF146 / RFU, ZNF330 / Fold change vs veh, ZNF330 / RFU, GPN3 / Fold change vs veh, GPN3 / RFU, C9orf123 / Fold change vs veh, C9orf123 / RFU, N4BP2L2 / Fold change vs veh, N4BP2L2 / RFU, ARFIP1 / Fold change vs veh, ARFIP1 / RFU, FAM179B / Fold change vs veh, FAM179B / RFU, BCL10 / Fold change vs veh, BCL10 / RFU, UHRF1BP1L / Fold change vs veh, UHRF1BP1L / RFU, BET1 / Fold change vs veh, BET1 / RFU, CNOT2 / Fold change vs veh, CNOT2 / RFU, ZNF268 / Fold change vs veh, ZNF268 / Fold change vs veh, ZNF507 / RFU, DGCR2 / Fold change vs veh, DGCR2 / RFU, WDSUB1 / Fold change vs veh, WDSUB1 / Fold change vs veh, HSP90B1 /// MIR3652 / RFU, ADSS / Fold change vs veh, ADSS / RFU, GK / Fold change vs veh, GK / RFU, ZNF148 / Fold change vs veh, ZNF148 / RFU, TAF9 / Fold change vs veh, TAF9 / RFU, SLC1A5 / Fold change vs veh, SLC1A5 / RFU, SLMO2 / Fold change vs veh, SLMO2 / RFU, ABCC4 / Fold change vs veh, ABCC4 / RFU, LOC101060439 /// RAP1B / Fold change vs veh, LOC101060439 /// RAP1B / RFU, RFX7 / Fold change vs veh, RFX7 / RFU, GTPBP10 / Fold change vs veh, GTPBP10 / RFU, CNEP1R1 / Fold change vs veh, CNEP1R1 / RFU, BIVM-ERCC5 /// ERCC5 / Fold change vs veh, BIVM-ERCC5 /// ERCC5 / RFU, ILF3 / Fold change vs veh, ILF3 / RFU 11762660_at / Fold change /veh 11762660_at / RFU VCAN (11757783_s_at) / Fold change /veh VCAN (11757783_s_at) / RFU DDX43 (11728927_at) / Fold change /veh DDX43 (11728927_at) / RFU KRT8 (11758188_x_at) / Fold change /veh KRT8 (11758188_x_at) / RFU NKD1 (11759106_at) / Fold change /veh NKD1 (11759106_at) / RFU SRD5A1 (11742802_a_at) / Fold change /veh SRD5A1 (11742802_a_at) / RFU TPSAB1 /// TPSB2 (11721975_s_at) / Fold change /veh TPSAB1 /// TPSB2 (11721975_s_at) / RFU GSTM3 (11746129_a_at) / Fold change /veh GSTM3 (11746129_a_at) / RFU IL23R (11737362_x_at) / Fold change /veh IL23R (11737362_x_at) / RFU TMEM51 (11727254_a_at) / Fold change /veh TMEM51 (11727254_a_at) / RFU PIWIL2 (11732686_x_at) / Fold change /veh PIWIL2 (11732686_x_at) / RFU ORM1 (11744905_x_at) / Fold change /veh ORM1 (11744905_x_at) / RFU CCDC152 (11743942_at) / Fold change /veh CCDC152 (11743942_at) / RFU ECM1 (11717891_a_at) / Fold change /veh ECM1 (11717891_a_at) / RFU IL23R (11748794_a_at) / Fold change /veh IL23R (11748794_a_at) / RFU TNFAIP8L3 (11732012_x_at) / Fold change /veh TNFAIP8L3 (11732012_x_at) / RFU MBOAT4 (11741988_at) / Fold change /veh MBOAT4 (11741988_at) / RFU 11764193_at / Fold change /veh 11764193_at / RFU TMEM53 (11763286_at) / Fold change /veh TMEM53 (11763286_at) / RFU MAGEB2 (11727129_at) / Fold change /veh MAGEB2 (11727129_at) / RFU TMEM200A (11744735_a_at) / Fold change /veh TMEM200A (11744735_a_at) / RFU CCDC152 (11751479_a_at) / Fold change /veh CCDC152 (11751479_a_at) / RFU FAM211A (11726209_a_at) / Fold change /veh FAM211A (11726209_a_at) / RFU RGS16 (11746705_a_at) / Fold change /veh RGS16 (11746705_a_at) / RFU VCAN (11755009_s_at) / Fold change /veh VCAN (11755009_s_at) / RFU RHOB (11743442_s_at) / Fold change /veh RHOB (11743442_s_at) / RFU RGS16 (11720943_a_at) / Fold change /veh RGS16 (11720943_a_at) / RFU RGS16 (11720944_at) / Fold change /veh RGS16 (11720944_at) / RFU, VPS4B / Fold change vs veh, VPS4B / RFU, CREB1 / Fold change vs veh, CREB1 / RFU, DNAJC13 / Fold change vs veh, DNAJC13 / RFU, GNAQ / Fold change vs veh, GNAQ / RFU, CDK5R1 / Fold change vs veh, CDK5R1 / RFU, ZRANB3 / Fold change vs veh, ZRANB3 / RFU, CUL4A / Fold change vs veh, CUL4A / RFU, CCNY / Fold change vs veh, CCNY / RFU, UFL1 / Fold change vs veh, UFL1 / RFU, COG3 / Fold change vs veh, COG3 / RFU, DIAPH2 / Fold change vs veh, DIAPH2 / RFU, SKA2 / Fold change vs veh, SKA2 / RFU, AFF3 / Fold change vs veh, AFF3 / RFU, LMF1 / Fold change vs veh, LMF1 / RFU, IPO11 / Fold change vs veh, IPO11 / RFU, DFFB / Fold change vs veh, DFFB / RFU, FOXP1 / Fold change vs veh, FOXP1 / RFU, CARD8 / Fold change vs veh, CARD8 / RFU, STRN3 / Fold change vs veh, STRN3 / RFU, ADK / Fold change vs veh, ADK / RFU, RASSF2 / Fold change vs veh, RASSF2 / RFU, WIPF1 / Fold change vs veh, WIPF1 / RFU, LARP1B / Fold change vs veh, LARP1B / RFU, RASA1 / Fold change vs veh, RASA1 / RFU, RB1 / Fold change vs veh, RB1 / RFU, PPFIA1 / Fold change vs veh, PPFIA1 / RFU, MAT2A / Fold change vs veh, MAT2A / RFU, CCT5 / Fold change vs veh, CCT5 / RFU, WDR92 / Fold change vs veh, WDR92 / RFU, CUX1 / Fold change vs veh, CUX1 / RFU, TTC7A / Fold change vs veh, TTC7A / RFU, TMEM135 / Fold change vs veh, TMEM135 / RFU, DEPTOR / Fold change vs veh, DEPTOR / RFU, CPM / Fold change vs veh, CPM / RFU, DNAJB6 / Fold change vs veh, DNAJB6 / RFU, CACNA2D3 / Fold change vs veh, CACNA2D3 / RFU, DTX4 / Fold change vs veh, DTX4 / RFU, TFCP2 / Fold change vs veh, TFCP2 / RFU, GMCL1 /// GMCL1P1 / Fold change vs veh, GMCL1 /// GMCL1P1 / RFU, AEBP2 / Fold change vs veh, AEBP2 / RFU, SNHG1 /// SNORD22 /// SNORD25 /// SNORD26 /// SNORD27 /// SNORD28 /// SNORD29 /// SNORD31 / Fold change vs veh, SNHG1 /// SNORD22 /// SNORD25 /// SNORD26 /// SNORD27 /// SNORD28 /// SNORD29 /// SNORD31 / Fold change (Aza/veh), C12orf56 (ProbeSet 11735607_a_at) / Fold change (ACY-1035/veh), C12orf56 (ProbeSet 11735607_a_at) / Fold change (Aza/veh), FGFR1OP (ProbeSet 11751329_s_at) / Fold change (ACY-1035/veh), FGFR1OP (ProbeSet 11751329_s_at) / Fold change (Aza/veh), VPS36 (ProbeSet 11739960_a_at) / Fold change (ACY-1035/veh), VPS36 (ProbeSet 11739960_a_at) / RFU SYPL1 (11715823_x_at) / Fold change /veh SYPL1 (11715823_x_at) / RFU IGFBP7 (11715501_s_at) / Fold change /veh IGFBP7 (11715501_s_at) / RFU REEP3 (11722064_at) / Fold change /veh REEP3 (11722064_at) / RFU IGLL1 (11728026_x_at) / Fold change /veh IGLL1 (11728026_x_at): dose or concentration left out as unconfirmed
Details: ProbeSet 11723930_at; LIST D

Structure (SMILES): Nc1ncn([C@@H]2O[C@H](CO)[C@@H](O)[C@H]2O)c(=O)n1 [azacitidine]
- RFU, CCT5: 106.24 RFU

From publication PMC5218480 (PLoS ONE, 2017)
